US11345697B1, “Crystalline berberine ascorbate salt, methods of preparation and applications thereof” (Beiture LLC, priority 2020, dated 2022)

How the values were obtained:
[1] = Thermogravimetry analysis (TGA); assay type: physicochemical; details: for TGA mass loss: heating from about 25° C. to about 100° C.
Procedure: TGA was performed on samples prepared according to standard methods using a Q SERIES™ Q5000 thermogravimetry analyzer available from TA Instruments INSTRUMENTS® (New Castle, Del.). A sample (approximately 5 mg) was placed into an aluminum sample pan and transferred to the TGA furnace. The instrument was purged with nitrogen at 50 mL/min and data collected between 25° C. and 300° C., using a dynamic heating rate of 10° C./minute. Thermal data was analyzed using standard software, e.g., Universal Analysis v.4.5A from TA INSTRUMENTS®.

[2] = Procedure: 50 mg of crystalline berberine ascorbate Form A (from example 1) was suspended in 0.20 ml of water.
50 mg of crystalline berberine chloride dihydrate (from Sigma-Aldrich) was suspended in 10 ml of water. […] The solubility residue was isolated by filtration.

[3] = Hygroscopicity / form stability versus relative humidity; assay type: physicochemical; details: up to 70% relative humidity, without a form change
Remark: listed apart in the source
[4] = 25° C.; AAPS PharmSciTech, 2010, 11(3), 1466-1475; cited from earlier work
[5] = cited from earlier work

Structure (SMILES): COc1ccc2c(c1OC)C(CC(=O)CC(C)C)N1CCc3cc4c(cc3C1=C2)OCO4 (stereo not drawn) [berberine methyl isobutyl ketone adduct]
- TGA mass loss [1]: 0.3%

Structure (SMILES): COc1ccc2c(c1OC)C(CC(C)=O)N1CCc3cc4c(cc3C1=C2)OCO4 (stereo not drawn) [crystalline berberine acetone adduct, berberine acetone adduct]
- TGA mass loss [1]: 0.3%

Structure (SMILES): COc1ccc2cc3[n+](cc2c1OC)CCc1cc2c(cc1-3)OCO2 [crystalline berberine ascorbate Form A, berberine ascorbate]
- aqueous solubility, times higher than commercial berberine hydrochloride [2]: more than 50 times
- solubility in water [2]: more than 250 g/L
- weight loss in thermal study ([1]; heated to about 150° C.): no significant weight loss
- TGA mass loss [1]: 0.4%
- hygroscopicity [3]: non-hygroscopic

Structure (SMILES): COc1ccc2cc3[n+](cc2c1OC)CCc1cc2c(cc1-3)OCO2 [crystalline berberine ascorbate Form B, berberine ascorbate]
- TGA mass loss [1]: 2.5%

Structure (SMILES): COc1ccc2c(c1OC)C(CC(=O)C(C)C)N1CCc3cc4c(cc3C1=C2)OCO4 (stereo not drawn) [berberine methyl isopropyl ketone adduct]
- TGA mass loss [1]: 0.1%

Structure (SMILES): CCC(=O)CC1c2c(ccc(OC)c2OC)C=C2c3cc4c(cc3CCN21)OCO4 (stereo not drawn) [berberine methyl ethyl ketone adduct]
- TGA mass loss [1]: 0.4%
- melting point: ~ 130 °C

Structure (SMILES): COc1ccc2cc3[n+](cc2c1OC)CCc1cc2c(cc1-3)OCO2 [berberine chloride]
- solid form of solubility residue (powder X-ray pattern) [2]: converted berberine chloride tetrahydrate
- solubility in water [2]: less than 5 g/L
- aqueous solubility (literature value) [4]: 1960 ± 110 µg/mL
- loss of water ([5]; elevated temperature or low humidity environment): more than 8%
- uptake of water ([5]; in water or high humidity environment, converts to tetrahydrate form): about 8%

Structure (SMILES): COc1ccc2c(c1OC)C(C1CCCCC1=O)N1CCc3cc4c(cc3C1=C2)OCO4 (stereo not drawn) [berberine cyclohexanone adduct]
- TGA mass loss [1]: 0.3%

Structure (SMILES): COc1ccc2c(c1OC)C(CC(=O)c1ccccc1)N1CCc3cc4c(cc3C1=C2)OCO4 (stereo not drawn) [berberine methyl phenyl ketone adduct]
- TGA mass loss [1]: 0.3%
